Experimental data from patent US20250270215A1, “IMIDAZOLE DERIVATIVES AS ALK5 INHIBITORS” (CHIESI FARMACEUTICI S.P.A., priority 2022, published 2025).

What follows are molecules tested against human ALK5 (Homo sapiens (Human), UniProt P36897) (assay: ADP-GLO Kinases assay (ALK5 enzymatic activity)). Settings: purified recombinant human ALK5 2.6 nM, TGFβ1 peptide substrate, 25° C., 150 min incubation, ADP-Glo detection.
Format: biochemical
Description: The enzymatic activity of compounds of the present invention was monitored measuring the formation of ADP using the ADP-GLO Kinases assay. Following the incubation of the purified enzyme, a substrate and ATP, the produced ADP was converted into ATP, which in turn was converted into light by Ultra-Glo Luciferase. The luminescent signal positively correlated with ADP amount and kinase activity. Briefly, the kinase reaction was performed by incubating 2.6 nM of the purified, commercially available human ALK5 (recombinant TGF β1 N-term GST-tagged, 80-end), a final concentration of TGFβ1 peptide 94.5 μM (Promega, T36-58) and ultra-pure ATP (Promega V915B). The ATP concentration was set at the Km value (concentration of substrate which permits the enzyme to achieve half maximal velocity (Vmax)) of ALK5 (5 μM). All reactions/incubations were performed at 25° C. Compound and ALK5 kinase were mixed and incubated for 15 mins. Reactions were initiated by addition of ATP at a final concentration in the assay of 0.83 μM. After an incubation of 150 min, the reaction was stopped, and ADP production detected with ADP-Glo kit according to manufacturer's indications. The assay was performed in 384-well format and was validated using a selection of reference compounds that was tested in 11 point concentration-response curve.

human ALK5, sequence (P36897 80-503 limits assumed): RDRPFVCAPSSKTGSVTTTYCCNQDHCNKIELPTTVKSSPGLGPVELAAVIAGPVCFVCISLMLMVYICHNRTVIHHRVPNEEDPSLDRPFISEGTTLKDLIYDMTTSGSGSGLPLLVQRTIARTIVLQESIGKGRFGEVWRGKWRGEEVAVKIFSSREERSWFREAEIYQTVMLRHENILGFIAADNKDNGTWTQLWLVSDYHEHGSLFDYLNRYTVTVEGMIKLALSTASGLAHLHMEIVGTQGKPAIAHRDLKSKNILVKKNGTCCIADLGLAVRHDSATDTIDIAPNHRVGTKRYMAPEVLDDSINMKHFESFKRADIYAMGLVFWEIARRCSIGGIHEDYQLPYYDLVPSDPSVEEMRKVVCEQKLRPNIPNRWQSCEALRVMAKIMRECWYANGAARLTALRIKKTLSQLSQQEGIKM

IC50 [nM]	Compound
< 1	Cc1csc(-c2nc3n(c2-c2cc4cnccc4s2)CCN3)n1 [Example 7, 2-(6-(4-Methylthiazol-2-yl)-2,3-dihydro-1H-imidazo[1,2-a]imidazol-5-yl)thieno[3,2-c]pyridine]
5 to 10	Cn1ccc(-c2nc3n(c2-c2ccc4ncnn4c2)CCN3)n1 [Example 8, 6-(6-(1-Methyl-1H-pyrazol-3-yl)-2,3-dihydro-1H-imidazo[1,2-a]imidazol-5-yl)-[1,2,4]triazolo[1,5-a]pyridine]
1 to 5	Cn1ccc(-c2nc3n(c2-c2cc4cnccc4s2)CCN3)n1 [Example 9, 2-(6-(1-Methyl-1H-pyrazol-3-yl)-2,3-dihydro-1H-imidazo[1,2-a]imidazol-5-yl)thieno[3,2-c]pyridine]
5 to 10	Cc1cccc(-c2nc3n(c2-c2cccc4ncsc24)CCN3)n1 [Example 15]
1 to 5	CCOC(=O)CC1Cn2c(nc(-c3cccc(C)n3)c2-c2cc3cnccc3s2)N1 (stereo not shown) [Example 20, Ethyl 2-[6-(6-methylpyridin-2-yl)-5-{thieno[3,2-c]pyridin-2-yl}-1H,2H,3H-imidazo[1,2-a][1,3]diazol-2-yl] acetate]
1 to 5	Cc1cccc(-c2nc3n(c2-c2cc4cnccc4s2)CC(CC(=O)O)N3)n1 (stereo not shown) [Example 21, 2-[6-(6-Methylpyridin-2-yl)-5-{thieno[3,2-c]pyridin-2-yl}-1H,2H,3H-imidazo[1,2-a][1,3]diazol-2-yl]acetic acid]
< 1	CCN1CCn2c1nc(-c1cccc(C)n1)c2-c1ccc2ncnn2c1 [Example 22, 6-(1-Ethyl-6-(6-methylpyridin-2-yl)-2,3-dihydro-1H-imidazo[1,2-a]imidazol-5-yl)-[1,2,4]triazolo[1,5-a]pyridine]
1 to 5	CCOC(=O)C1Cn2c(nc(-c3cccc(C)n3)c2-c2ccc3ncnn3c2)N1 (stereo not shown) [Example 26, Ethyl 6-(6-methylpyridin-2-yl)-5-{[1,2,4]triazolo[1,5-a]pyridin-6-yl}-1H,2H,3H-imidazo[1,2-a][1,3]diazole-2-carboxylate]
1 to 5	Cc1cccc(-c2nc3n(c2-c2cc4cnccc4s2)CC(C(=O)N(C)C)N3)n1 (stereo not shown) [Example 29, N,N-Dimethyl-6-(6-methylpyridin-2-yl)-5-{thieno[3,2-c]pyridin-2-yl}-1H,2H,3H-imidazo[1,2-a][1,3]diazole-2-carboxamide]
1 to 5	Cc1cccc(-c2nc3n(c2-c2ccc4snnc4c2)CCN3)n1 [Example 30, 5-(6-(6-Methylpyridin-2-yl)-2,3-dihydro-1H-imidazo[1,2-a]imidazol-5-yl)benzo[d][1,2,3] thiadiazole]
< 1	Cc1cccc(-c2nc3n(c2-c2ccc4nnsc4c2)CCN3)n1 [Example 31, 6-(6-(6-Methylpyridin-2-yl)-2,3-dihydro-1H-imidazo[1,2-a]imidazol-5-yl)benzo[d][1,2,3] thiadiazole]
< 1	CCN1CCn2c1nc(-c1cccc(C)n1)c2-c1ccc2ncsc2c1 [Example 33, 6-[1-Ethyl-6-(6-methylpyridin-2-yl)-1H,2H,3H-imidazo[1,2-a][1,3]diazol-5-yl]-1,3-benzothiazole]
1 to 5	Cc1cccc(-c2nc3n(c2-c2ccnc4[nH]ccc24)CCN3)n1 [Example 35, 4-(6-(6-Methylpyridin-2-yl)-2,3-dihydro-1H-imidazo[1,2-a]imidazol-5-yl)-1H-pyrrolo[2,3-b]pyridine]
1 to 5	CCN1CCn2c1nc(-c1cccc(C)n1)c2-c1cc2cnccc2s1 [Example 42, 2-(1-Ethyl-5-{thieno[3,2-c]pyridin-2-yl}-1H,2H,3H-imidazo[1,2-a] [1,3]diazol-6-yl)-6-methylpyridine]
1 to 5	Cc1cccc(-c2nc3n(c2-c2ccc(F)c(N)c2)CCN3)n1 [Example 43, 2-Fluoro-5-(6-(6-methylpyridin-2-yl)-2,3-dihydro-1H-imidazo[1,2-a]imidazol-5-yl) aniline]
1 to 5	Cc1cccc(-c2nc3n(c2-c2ccc4nc(N)sc4c2)CCN3)n1 [Example 48, 6-(6-(6-Methylpyridin-2-yl)-2,3-dihydro-1H-imidazo[1,2-a]imidazol-5-yl)benzo[d] thiazol-2-amine]
1 to 5	Cc1cccc(-c2nc3n(c2-c2ccc(O)cc2)CCN3)n1 [Example 55, 4-[6-(6-Methylpyridin-2-yl)-1H,2H,3H-imidazo[1,2-a][1,3]diazol-5-yl]phenol]
5 to 10	Cc1cccc(-c2nc3n(c2-c2ccnc(N)c2)CCN3)n1 [Example 56, 4-[6-(6-Methylpyridin-2-yl)-1H,2H,3H-imidazo[1,2-a][1,3]diazol-5-yl]pyridin-2-amine]
< 1	COc1cccc(-c2nc3n(c2-c2ccc4ncsc4c2)CCN3)n1 [Example 57, 6-[6-(6-Methoxypyridin-2-yl)-1H,2H,3H-imidazo[1,2-a][1,3]diazol-5-yl]-1,3-benzothiazole]
